Assay: Pharmacokinetics after intravenous and oral administration in rats
Assay type: in vivo
Details: Rats; iv dosing; dose 1 mg/kg (0.5 for Ex. 1, 10, 11, 35; 0.48 for Ex. 24)
Method: The LC/MS/MS system used in the analysis consists of an Agilent 1200 Series vacuum degasser, binary pump, well-plate autosampler, thermostatted column compartment, the Agilent G6430 Triple Quadrupole Mass Spectrometer with an electrosprayionization (ESI) source. Quantitative analysis was carried out using MRM mode. The parameters for MRM transitions are in the Table A.
An Agilent XDB-C18, 2.1×30 mm, 3.5 M column was used for the analysis. 5 L of the samples were injected. Analysis condition: The mobile phase was 0.1% formic acid in water (A) and 0.1% formic acid in methanol (B). The flow rate was 0.4 mL/min. And the gradient of Mobile phase was in the Table B.
Alternatively, an Agilent 6330 series LC/MS/MS spectrometer equipped with G1312A binary pumps, a G1367A autosampler and a G1314C UV detector were used in the analysis. An ESI source was used on the LC/MS/MS spectrometer. The analysis was done in positive ion mode as appropriate and the MRM transition for each analyte was optimized using standard solution. A Capcell MP-C18 100×4.6 mm I.D., […] column (Phenomenex, Torrance, Calif., USA) was used during the analysis. The mobile phase was 5 mM ammonia acetate, 0.1% MeOH in water (A): 5 mM ammonia acetate, 0.1% MeOH in acetonitrile (B) (70:30, v/v). The flow rate was 0.6 mL/min. Column was maintained at ambient temperature. 20 μL of the samples were injected.
The compounds disclosed herein are assessed in pharmacokinetic studies in mice, rats, dogs or monkeys. The compounds are administered as a water solution, 2% HPMC+1% TWEEN®80 in water solution, 5% DMSO+5% solutol in saline, 4% MC suspension or capsule. For the intravenous administration, the animals are generally given at 1 or 2 mg/kg dose. For the oral (p.o.) dosing, mice and rats are generally given 5 or 10 mg/kg dose, and dogs and monkeys are generally given 10 mg/kg dose. The blood samples (0.3 mL) are drawn at 0.25, 0.5, 1.0, 2.0, 3.0, 4.0, 6.0, 8.0, 12 and 24 h time points or 0.083, 0.25, 0.5, 1.0, 2.0, 4.0, 6.0, 8.0 and 24 h time points and centrifuged at 3,000 or 4000 rpm for 2 to 10 min. The plasma solutions are collected, stored at −20° C. or −70° C. until analyzed by LC/MS/MS as described above.

Row | CL/F [mL/min/kg] | SMILES
1 | 3.5 | CC[C@H](Nc1ncnc(N)c1-c1ncnn1C)c1nc2cccc(Cl)c2c(=O)n1-c1ccccc1 [Ex. 10, 2-((1S)-1-((6-amino-5-(1-methyl-H-1,2,4-triazol-5-yl)pyrimidin-4-yl)amino)propyl)-5-chloro-3-phenylquinazolin-4(3H)-one]
2 | 4.83 | CC[C@H](Nc1ncnc(N)c1-c1ccccn1)c1nc2cccc(Cl)c2c(=O)n1C1CC1 [Ex. 11, (S)-2-(1-((6-amino-5-(pyridin-2-yl)pyrimidin-4-yl)amino)propyl)-5-chloro-3-cyclopropylquinazolin-4(3H)-one]
3 | 31.8 | CC[C@H](Nc1ncnc(N)c1-c1noc(C)n1)c1nc2cccc(Cl)c2c(=O)n1C1CC1 [Ex. 12, (S)-2-(1-((6-amino-5-(5-methyl-1,2,4-oxadiazol-3-yl)pyrimidin-4-yl)amino)-propyl)-5-chloro-3-cyclopropylquinazolin-4(3H)-one]
4 | 72.5 | CC[C@H](Nc1ncnc(N)c1-c1noc(C)n1)c1nc2cccc(Cl)c2c(=O)n1-c1ccccc1 [Ex. 13, (S)-2-(1-((6-amino-5-(5-methyl-1,2,4-oxadiazol-3-yl)pyrimidin-4-yl)amino)-propyl)-5-chloro-3-phenylquinazolin-4(3H)-one]
5 | 46.7 | CC[C@H](Nc1ncnc(N)c1-c1ccon1)c1nc2cccc(Cl)c2c(=O)n1C1CC1 [Ex. 14, (S)-2-(1-((6-amino-5-(isoxazol-3-yl)pyrimidin-4-yl)amino)propyl)-5-chloro-3-cyclopropylquinazolin-4(3H)-one]
6 | 68.7 | CC[C@H](Nc1ncnc(N)c1-c1noc(C)n1)c1nc2cccc(F)c2c(=O)n1C1CC1 [Ex. 16, (S)-2-(1-((6-amino-5-(5-methyl-1,2,4-oxadiazol-3-yl)pyrimidin-4-yl)amino)-propyl)-3-cyclopropyl-5-fluoroquinazolin-4(3H)-one]
7 | 54.2 | CC[C@H](Nc1ncnc(N)c1-c1ncn(C)n1)c1nc2cccc(C)c2c(=O)n1C1CC1 [Ex. 18, (S)-2-(1-((6-amino-5-(1-methyl-1H-1,2,4-triazol-3-yl)pyrimidin-4-yl)amino)propyl)-3-cyclopropyl-5-methylquinazolin-4(3H)-one]
8 | 127 | CC[C@@H](Nc1ncnc(N)c1-c1nc(C)no1)c1nc2cccc(Cl)c2c(=O)n1C1CC1 [Ex. 19, (R)-2-(1-((6-amino-5-(3-methyl-1,2,4-oxadiazol-5-yl)pyrimidin-4-yl)amino)propyl)-5-chloro-3-cyclopropylquinazolin-4(3H)-one]
9 | 77.3 | CC[C@H](Nc1ncnc(N)c1-c1nnc(C)o1)c1nc2cccc(C)c2c(=O)n1C1CC1 [Ex. 20]
10 | 55.8 | CC[C@H](Nc1ncnc(N)c1-c1nc(C)no1)c1nc2cccc(C)c2c(=O)n1C1CC1 [Ex. 21, (S)-2-(1-((6-amino-5-(3-methyl-1,2,4-oxadiazol-5-yl)pyrimidin-4-yl)amino)-propyl)-3-cyclopropyl-5-methylquinazolin-4(3H)-one]
11 | 71.3 | CC[C@H](Nc1ncnc(N)c1-c1nc(C)no1)c1nc2cccc(F)c2c(=O)n1C1CC1 [Ex. 23, (S)-2-(1-((6-amino-5-(3-methyl-1,2,4-oxadiazol-5-yl)pyrimidin-4-yl)amino)-propyl)-3-cyclopropyl-5-fluoroquinazolin-4(3H)-one]
12 | 75.7 | CC[C@H](Nc1ncnc(N)c1-c1nnc(C)o1)c1nc2cccc(F)c2c(=O)n1C1CC1 [Ex. 25, (S)-2-(1-((6-amino-S-(5-methyl-1,3,4-oxadiazol-2-yl)pyrimidin-4-yl)amino)-propyl)-3-cyclopropyl-5-fluoroquinazolin-4(3H)-one]
13 | 37 | CC[C@H](Nc1ncnc(N)c1-c1ncn(C)n1)c1nc2cccc(F)c2c(=O)n1C1CC1 [Ex. 26, (S)-2-(1-((6-amino-5-(1-methyl-1H-1,2,4-triazol-3-yl)pyrimidin-4-yl)amino)propyl)-3-cyclopropyl-5-fluoroquinazolin-4(3H)-one]
14 | 43.3 | CC[C@H](Nc1ncnc(N)c1-c1ncn(C)n1)c1nc2cccc(Cl)c2c(=O)n1-c1ccccc1 [Ex. 32, (S)-2-(1-((6-amino-5-(1-methyl-H-1,2,4-triazol-3-yl)pyrimidin-4-yl)amino)-propyl)-5-chloro-3-phenylquinazolin-4(3H)-one]
15 | 65.5 | Cc1nc(-c2c(N)ncnc2N[C@@H](C)c2nc3cccc(Cl)c3c(=O)n2C2CC2)no1 [Ex. 33, (S)-2-(1-((6-amino-5-(5-methyl-1,2,4-oxadiazol-3-yl)pyrimidin-4-yl)amino)-ethyl)-5-chloro-3-cyclopropylquinazolin-4(3H)-one]
16 | 53 | CC[C@H](Nc1ncnc(N)c1-c1nnc(C)o1)c1nc2cccc(Cl)c2c(=O)n1-c1ccccc1C [Ex. 35, (S)-2-(1-((6-amino-5-(5-methyl-1,3,4-oxadiazol-2-yl)pyrimidin-4-yl)-amino)propyl)-5-chloro-3-(o-tolyl)quinazolin-4(3H)-one]
17 | 67.5 | CC[C@H](Nc1ncnc(N)c1-c1nc(C)no1)c1nc2cccc(C)c2c(=O)n1-c1ccccc1 [Ex. 37, (S)-2-(1-((6-amino-5-(3-methyl-1,2,4-oxadiazol-5-yl)pyrimidin-4-yl)amino)-propyl)-5-methyl-3-phenylquinazolin-4(3H)-one]
18 | 71.3 | CC[C@H](Nc1ncnc(N)c1-c1nnc(C)o1)c1nc2cccc(C)c2c(=O)n1-c1ccccc1 [Ex. 38, (S)-2-(1-((6-amino-5-(5-methyl-1,3,4-oxadiazol-2-yl)pyrimidin-4-yl)amino)-propyl)-5-methyl-3-phenylquinazolin-4(3H)-one]
19 | 51.8 | CC[C@H](Nc1ncnc(N)c1-c1nc(C)no1)c1nc2cccc(F)c2c(=O)n1-c1ccccc1 [Ex. 39, (S)-2-(1-((6-amino-5-(3-methyl-1,2,4-oxadiazol-5-yl)pyrimidin-4-yl)amino)-propyl)-5-fluoro-3-phenylquinazolin-4(3H)-one]
20 | 57.3 | CC[C@H](Nc1ncnc(N)c1-c1nnc(C)o1)c1nc2cccc(F)c2c(=O)n1-c1ccccc1 [Ex. 40, (S)-2-(1-((6-amino-5-(5-methyl-1,3,4-oxadiazol-2-yl)pyrimidin-4-yl)amino)-propyl)-5-fluoro-3-phenylquinazolin-4(3H)-one]
21 | 84.3 | Cc1noc(-c2c(N)ncnc2N[C@@H](C)c2nc3cccc(Cl)c3c(=O)n2C2CC2)n1 [Ex. 41, (S)-2-(1-((6-amino-5-(3-methyl-1,2,4-oxadiazol-5-yl)pyrimidin-4-yl)amino)-ethyl)-5-chloro-3-cyclopropylquinazolin-4(3H)-one]
22 | 82 | C[C@H](Nc1ncnc(N)c1-c1nnn(C)n1)c1nc2cccc(Cl)c2c(=O)n1C1CC1 [Ex. 42, (S)-2-(1-((6-amino-5-(2-methyl-2H-tetrazol-5-yl)pyrimidin-4-yl)amino)ethyl)-5-chloro-3-cyclopropylquinazolin-4(3H)-one]
23 | 36.8 | CC[C@H](Nc1ncnc(N)c1-c1nnn(C)n1)c1nc2cccc(F)c2c(=O)n1-c1ccccc1 [Ex. 43, (S)-2-(1-((6-amino-5-(2-methyl-2H-tetrazol-5-yl)pyrimidin-4-yl)amino)-propyl)-5-fluoro-3-phenylquinazolin-4(3H)-one]
24 | 73.7 | C[C@H](Nc1ncnc(N)c1-c1ncn(C)n1)c1nc2cccc(Cl)c2c(=O)n1C1CC1 [Ex. 44, (S)-2-(1-((6-amino-5-(1-methyl-1H-1,2,4-triazol-3-yl)pyrimidin-4-yl)amino)-ethyl)-5-chloro-3-cyclopropylquinazolin-4(3H)-one]
25 | 55.8 | CC[C@H](Nc1ncnc(N)c1-c1nc(COC)n(C)n1)c1nc2cccc(Cl)c2c(=O)n1C1CC1 [Ex. 46]
26 | 67.3 | CC[C@H](Nc1ncnc(N)c1-c1ccon1)c1nc2cccc(F)c2c(=O)n1C1CC1 [Ex. 48, (S)-2-(1-((6-amino-5-(isoxazol-3-yl)pyrimidin-4-yl)amino)propyl)-3-cyclopropyl-5-fluoroquinazolin-4(3H)-one]
27 | 85.3 | CC[C@@H](Nc1ncnc(N)c1-c1ccon1)c1nc2cccc(Cl)c2c(=O)n1C1CC1 [Ex. 49, (R)-2-(1-((6-amino-5-(isoxazol-3-yl)pyrimidin-4-yl)amino)propyl)-5-chloro-3-cyclopropylquinazolin-4(3H)-one]
28 | 86.7 | CC[C@H](Nc1ncnc(N)c1-c1ncn(C)n1)c1nc2cccc(Cl)c2c(=O)n1-c1ccc(F)cc1 [Ex. 50, (S)-2-(1-((6-amino-5-(1-methyl-1H-1,2,4-triazol-3-yl)pyrimidin-4-yl)amino)propyl)-5-chloro-3-(4-fluorophenyl)quinazolin-4(3H)-one]
